Experimental data taken from US20150094354A1, “METHOD FOR TREATING CELL PROLIFERATIVE DISORDER BY INHIBITING C1GALT1 EXPRESSION” (National Taiwan University, priority 2013, published 2015).

Test system: MET
Test: VVA lectin pull-down of MET
Format: cell-based, human
Procedure: Vicia villosa agglutinin (VVA)- and peanut agglutinin (PNA) lectin-conjugated agarose beads, fluorescein isothiocyanate (FITC)-, and biotinylated VVA were purchased from Vector Laboratories. Recombinant EGF, HGF, IGF-I, and protein deglycosylation kits were purchased from Sigma. Protein deglycosylation is carried out using an Enzymatic Protein Deglycosylation Kit (Sigma). Briefly, cell lysates are treated with neuraminidase or PNGase F at 37° C. for 1 hour. For lectin blotting, […] of cell lysate is separated by an 8% SDS-PAGE, transferred to polyvinylidene difluoride membrane (Millipore), and blotted with biotinylated VVA (1:10,000). For lectin pull-down assay, cell lysates (0.3 mg) are incubated with or without deglycosylation enzymes and then applied to VVA- or PNA-conjugated agarose beads at 4° C. for 16 hours. The pulled down proteins are analyzed by Western blotting.
To investigate whether C1GALT1 can modify O-glycans on MET, VVA binding to MET was analyzed in hepatocellular carcinoma cells with C1GALT1 knockdown or overexpression. […] Cell lysates were treated with (+) or without (−) neuraminidase and then pulled down by VVA agarose beads. The pulled down glycoproteins were immunoblotted (IB) with anti-MET antibody. These findings indicate that C1GALT1 can modify O-glycans on MET in hepatocellular carcinoma cells. […]

Q: “C1GALT1 si-1: siRNA oligonucleotide against C1GALT1, presumably SEQ ID NO: 1, UUAGUAUACGUUCAGGUAAGGUAGG (chemistry not given here)” was tested. Which “VVA binding to MET” value (HA22T cells) did it give?
A: increased

Q: What about the “VVA binding to MET” value (PLC5 cells) of the same substance?
A: increased
